The record followed here is patent US20170158636A1, “FUNCTIONALISED AND SUBSTITUTED CARBAZOLES AS ANTI-CANCER AGENTS” (Novogen Ltd., priority 2014, published 2017).

Type in all cases: cell-based
Experiment [1] concerns DU145 prostate cancer cells. Kind of experiment: Anti-proliferative activity, cell-titre luminescent viability assay. To be noted: Homo sapiens, DU-145, 72 hours exposure. The method, then:
(§1) The ability of compounds 1001-1018 and 1037-1039 to inhibit the proliferation of cancer cells representative of neuroblastoma, melanoma, prostate cancer, colorectal cancer, non-small cell lung carcinoma, and triple negative breast cancer was assessed (Table 1).
(§2) Briefly, a pre-determined number of cells as calculated from cell growth assays for each of the cell lines employed were seeded into their respective culture medium (using ATCC culture parameters—http://www.atcc.org) and cultured for 24 hours at 37° C. and 5% CO2 in 96-well culture plates. Once attached, each cell line was then exposed to increasing concentrations of each respective analogue (0.03, 0.3, 3 and 30 μM for compounds 1001-13 and 1015-18; 0.1, 0.3, 1, 3, 10 and 30 μM for compounds 1014 and 1037-39), cultured for a further 72 hours and exposed to cell-titre luminescent reagent (100 μL/well) for a further 30 minutes) to measure cell viability. Luminescence was captured using an EnVision multilabel reader and the data for each analogue concentration compared against no treatment control. For compounds 1001-13 and 1015-18, semi-log plots of Percent of Control versus concentration were prepared and IC50 determined using linear regression analysis. For compounds 1014 and 1037-39, cell viability was normalized to control (vehicle alone) and dose-response curves, and half maximal effective concentration (EC50) values were determined using Graph Pad Prism 6 (nonlinear regression sigmoidal dose-response variable slope).

In experiment [2] the test system is CaCo2 colorectal cancer cells. The experiment is described as above. To be noted: Homo sapiens, Caco-2, 72 hours exposure. The method, then:
as §1, §2

Another experiment deals with SK-Mel-28 melanoma cells. The description is as above. The settings on record: Homo sapiens, 72 hours exposure. How it is done:
as §1, §2

For experiment [3], the system named is SK-N-SH neuroblastoma cells. Described as above. To be noted: Homo sapiens, 72 hours exposure. The method, then:
as §1, §2

In experiment [4] the test system is MDA-MB-231 breast cancer cells. The description is as above. The settings on record: Homo sapiens, 72 hours exposure. The method, then: as §1, §2
In experiment [5] the test system is A549 lung (NSLC) cancer cells. Described as above. To be noted: Homo sapiens, 72 hours exposure. The method, then:
as §1, §2

Experiment [6] relates to PC3 prostate cancer cells. The description is as above. The settings on record: 72 hours exposure. The method, then: as §1, §2
The next experiment concerns TNF-α. The experiment can be described thus: Cytokine release from LPS-stimulated PBMCs (HTRF). The settings on record: PBMC, human PBMCs. The method, then: (§3) The ability of compounds 1004, 1007 and 1018 to inhibit the release of cytokines TNF-α, IFN-γ, IL-6, IL-21, IL-17A and IL-23 was evaluated in vitro (Tables 2 and 3). Briefly, human peripheral blood mononuclear cells (PBMCs) were isolated from human peripheral blood by Histopaque density gradient centrifugation. The freshly isolated PBMCs were seeded at 50,000 cells/well in a 96-well half area plate. PBMCs were dosed with the test compounds (at 10 μM, 1 μM and 0.1 μM) and then incubated at 37° C. and 5% CO2 for 2 hours. To stimulate release of the cytokines IFN-γ, IL-21, IL-17A and IL-23, the PBMCs were treated with 50 ng/mL of phorbol 12-myristate 13-acetate (PMA) and 1 μg/mL of ionomycin and to stimulate the release of TNF-α and IL-6, PBMCs were treated with 100 ng/mL of lipopolysaccharide (LPS) from gram-negative bacteria. The PBMCs were then incubated at 37° C. and 5% CO2 for a further 6 hours and the cell supernatant was collected and a Homogenous Time Resolved Fluorescence (HTRF) assay was carried out following the manufacturer's instructions. Cytokine release from the PBMCs was captured using a Perkin Elmer ENVISION 2104 microplate reader set at 615 nm and 665 nm respectively.

The next experiment deals with IL-6. The experiment can be described thus: Cytokine release from LPS-stimulated PBMCs (HTRF). To be noted: PBMC, human PBMCs. How it is done: as §3
On the technique in general: In TR-FRET formats the signal depends on donor and acceptor labels being close together.

In a further experiment the test system is IFN-γ. Kind of experiment: Cytokine release from PMA/ionomycin-stimulated PBMCs (HTRF). To be noted: PBMC, human PBMCs, PMA and ionomycin. How it is done: as §3
In another experiment the test system is IL-23. Described as above. The settings on record: PBMC, human PBMCs, PMA and ionomycin. How it is done: as §3
Another experiment deals with IL-21. The experiment is described as above. To be noted: PBMC, human PBMCs, PMA and ionomycin. How it is done: as §3
For another experiment, the system named is IL-17A. The experiment is described as above. The settings on record: PBMC, human PBMCs, PMA and ionomycin. The method, then:
as §3

Experiment [7] relates to actin cytoskeleton in SK-N-SH neuroblastoma cells. Kind of experiment: Microfilament disruption assay (phalloidin staining, linear feature quantitation). To be noted: 0-40 μM, 24 hours post treatment. How it is done: FIG. 1: Imaging and quantitation of actin filaments in SK-N-SH neuroblastoma cells treated with compound (A) 1007, (B) 1013 and (C) 1016. Cells were stained with 488-Atto-Phallodin and DAPI to visualize the actin filament bundles and the nucleus, respectively. Shown in the top panel is a representative gray scale immunofluorescent image from control (vehicle alone), 5 μM and 10 μM treated cells. […] The coloured lines indicate the detected actin filaments. Also shown is the quantitation of cell number, filament number/cell and filament number/cell area (μM^2). Statistical analysis was performed using a one way ANNOVA-multiple comparison where each drug treated group was compared to the control. ****p<0.0001, […].
The ability of compounds 1007, 1013 and 1016 to disrupt the actin cytoskeleton was assessed in vitro using the microfilament disruption assay (FIG. 1).
Briefly, SK-N-SH neuroblastoma cells were seeded at 1800 cells/well in a 384 Perkin Elmer High Content Imaging “Cell Carrier” plate and left to plate down 24 hours prior to treatment. Cells were then treated with 0-40 μM of the test compounds (1:2 serial dilution in a 10 point dose response). 24 hours post treatment, cells were fixed with 4% w/v paraformaldehyde (PBS), permeabilized with Triton-X-100 and stained with 488-Atto-Phallodin and DAPI to visualize the actin filament bundles and the nucleus respectively. Single plane images were obtained on the Perkin Elmer Opera confocal microscope using a 20× objective. Twelve fields of view per condition (representing approximately 300-800 cells) were imaged. Images were then exported and changes in the organization and numbers of actin filaments within the cell were quantitated using a linear feature detection algorithm developed by CSIRO (Vindin et al. 2014). This algorithm detects the “ridge lines” or “peaks” in local pixel intensity in the cell image. It is these “ridge lines” that correspond to actin filament bundles and allow us to quantitate the number of filaments per cell.

In experiment [8] the test system is Tpm3.1-containing actin filaments in SK-N-SH neuroblastoma cells. Kind of experiment: Disruption of Tpm3.1-containing actin filaments (γ9d staining). To be noted: SK-N-SH cells, 0, 5 and 7.5 μM, 48 hours post treatment. The method, then: FIG. 2: Imaging and quantitation of Tpm3.1-containing actin filaments in SK-N-SH neuroblastoma cells treated with compound (A) 1007, (B) 1013 and (C) 1016. Cells were stained with γ9d (sheep polycolonal, 1:100) followed by 488-conjugated secondary (1:1000) and DAPI to visualize the Tpm3.1 containing filament bundles and the nucleus, respectively. Shown in the top panel is a representative gray scale immunofluorescent image from control (vehicle alone), 5 μM and 7.5 μM treated cells. […] The coloured lines indicate the detected Tpm3.1 containing actin filaments. Also shown is the quantitation of cell number, Tpm3.1 filament number/cell and Tpm3.1 filament number/cell area (μM^2). Statistical analysis was performed using a one way ANNOVA-multiple comparison where each drug treated group was compared to the control. ****p<0.0001.
Another assay was conducted to assess the ability of compounds 1007, 1013 and 1016 to specifically disrupt actin filaments containing Tpm3.1 (FIG. 2). Briefly, SK-N-SH neuroblastoma cells were seeded at 2×10^4 cells/mL in a 10 cm tissue culture plate and left to plate down 24 hours prior to treatment. Cells were then treated with 0, 5 and 7.5 μM of the test compounds. 48 hours post treatment, cells were fixed with 4% w/v paraformaldehyde (PBS), permeabilized with Triton-X-100 and stained with γ9d (sheep polycolonal, 1:100) followed by 488-conjugated secondary (1:1000) and DAPI to visualize the Tpm3.1 containing filament bundles and the nucleus, respectively. Single plane images were obtained on the Zeiss epifluorescent Axioscope microscope using a 20× objective. Six fields of view per condition were imaged. Images were then exported and the linear features (actin filaments containing Tpm3.1) were then quantitated using the linear feature detection algorithm described above.

Consider `CN(C)CCCn1c2ccccc2c2cc(C(=O)N3CCN(CCc4ccc5c(c4)OCO5)CC3)ccc21` [Compound 1004, (4-(2-(benzo[d][1,3]dioxol-5-yl)ethyl)piperazin-1-yl)(9-(3-(dimethylamino)propyl)-9H-carbazol-3-yl)methanone], for which the IC50 (as a rule, the midpoint of a concentration-inhibition curve) in [1] amounted to 3300 nM; in experiment [2], 3700 nM; with SK-Mel-28 melanoma cells, 3500 nM; in [3], 2900 nM; in [4] it was 3800 nM; in experiment [5], 3400 nM. In experiment [6], this compound yielded an IC50 of 2900 nM. Further, the inhibition (commonly the drop in the measured response relative to a control, in per cent) at 0.1 µM with TNF-α is 9%; in the experiment on IL-6, -9%; with IFN-γ, -19%; in the experiment with IL-23 it was -16%; in the experiment with IL-21, -6%; in the experiment with IL-17A it was -2%. The inhibition at 1 µM in the experiment with TNF-α was -8%; in the experiment on IL-6, -10%; with IFN-γ, -6%; in the experiment with IL-23 it was 9%; in the experiment on IL-21, -3%; with IL-17A, 6%. The inhibition at 10 µM in the experiment on TNF-α was 1%; in the experiment with IL-6, 2%; with IFN-γ, -7%; in the experiment on IL-23 it was 22%; with IL-21, 2%; in the experiment on IL-17A it was 47%.

Take `CN1CCN(CCCn2c3ccccc3c3cc(C(=O)N4CCN(CCc5ccc(F)cc5)CC4)ccc32)CC1` [Compound 1013, (4-(4-fluorophenethyl)piperazin-1-yl)(9-(3-(4-methylpiperazin-1-yl)propyl)-9H-carbazol-3-yl)methanone]: in [7], the “disruption of the actin cytoskeleton” value was “disrupt the actin cytoskeleton in a dose-dependent manner”. Further, the IC50 in experiment [1] is 3500 nM; in experiment [2] it was 2000 nM; in the experiment with SK-Mel-28 melanoma cells it was 2000 nM; in experiment [3] it was 2400 nM; in experiment [4] it was 2800 nM; in experiment [5] it was 3700 nM. For the same compound, the IC50 in experiment [6] was found to be 3300 nM. In addition, in experiment [8], the “disruption of Tpm3.1-containing actin filaments” value is recorded as “disrupt Tpm3.1-containing actin filaments in a dose-dependent manner”.

Consider `CN1CCN(CCCn2c3ccccc3c3cc(C(=O)N4CCN(CCc5cccc(F)c5)CC4)ccc32)CC1` [Compound 1016, (4-(3-fluorophenethyl)piperazin-1-yl)(9-(3-(4-methylpiperazin-1-yl)propyl)-9H-carbazol-3-yl)methanone], for which the “disruption of the actin cytoskeleton” value in experiment [7] is recorded as “disrupt the actin cytoskeleton in a dose-dependent manner”. Further, the IC50 in experiment [1] was 2800 nM; in experiment [2], 3100 nM; in the experiment on SK-Mel-28 melanoma cells, 2400 nM; in experiment [3], 2700 nM; in experiment [4], 2500 nM; in experiment [5], 3000 nM. Besides, in experiment [6], the IC50 came to 4000 nM. For the same compound, the “disruption of Tpm3.1-containing actin filaments” value in experiment [8] is reported as “disrupt Tpm3.1-containing actin filaments in a dose-dependent manner”.

Consider `CN1CCN(CCCn2c3ccccc3c3cc(C(=O)N4CCN(CCc5ccccc5)CC4)ccc32)CC1` [Compound 1018, (4-phenethylpiperazin-1-yl)(9-(3-(4-methylpiperazin-1-yl)propyl)-9H-carbazol-3-yl)methanone], for which the IC50 in experiment [1] turned out to be 3300 nM; in [2] it was 1500 nM; in the experiment with SK-Mel-28 melanoma cells it was 2500 nM; in experiment [3], 1900 nM; in [4] it was 1600 nM; in experiment [5], 2000 nM. Besides, half-maximal inhibition in experiment [6] (IC50) was put at 2900 nM. Also, the inhibition at 0.1 µM in the experiment with TNF-α is 26%; with IL-6 it was 22%; in the experiment on IFN-γ it was 2%; in the experiment with IL-23, -6%; with IL-21, 13%; in the experiment with IL-17A, 2%. Besides, the inhibition at 1 µM in the experiment with TNF-α is 58%; in the experiment with IL-6, 56%; in the experiment with IFN-γ it was 19%; in the experiment on IL-23, -2%; in the experiment with IL-21 it was 33%; with IL-17A, 34%. Moreover, the inhibition at 10 µM with TNF-α was 77%; with IL-6, 89%; in the experiment with IFN-γ, 92%; in the experiment on IL-23, 58%; in the experiment on IL-21 it was 50%; with IL-17A, 45%.
